Measured values: patent US5451571A (The Cleveland Clinic Foundation, priority 1994, dated 1995)
Where two headings read alike, the source gives them in different places. Residues, ends and D or L forms follow the SMILES beside them. No end group written: not given here. *: point of attachment. Cbz = O=C(OCc1ccccc1)*

Columns and labels:
[1] = tested on: vascular smooth muscle cultures (VSMC) from normotensive (WKY) rats; assay: 125I-Ang I metabolism by intact vascular smooth muscle cultures of WKY (HPLC); type: cell-based, rat; conditions: for inhibition of the formation of 125I-Ang-(1-7) from 125I-Ang I / effect on the levels of 125I-Ang-(1-7): 10 μM
Procedure: (§2) Aortic smooth muscle cells were isolated according to the following general process. The adventia and outer third medial layer were removed from segments (2 cm^2) of the thoracic aorta from SHR or WYK rats, minced into 1 cm^2 pieces and allowed to adhere on plastic for 15 minutes. The explants were incubated with Dulbecco's modified Eagles' medium (DMEM, Irvine Scientific CO., Irvine, Calif.) diluted 1:1 with F12 (Irvine Scientific) and supplemented with 10% fetal calf serum and 1% penicillin/streptomyocin in a humid atmosphere of 95% air, 5% CO2 at 37° five days and the tissues were removed after a halo of cells appeared around the explant. […] The culture medium was changed daily for the three days and thereafter, every third day. The smooth muscle cells were evaluated both for their morphological appearance and their recognition of a monoclonal antibody to smooth muscle-type alpha actin (A 2547, Sigma Chemical, St. Louis, MO).
(§3) For metabolism studies, cell monolayers (passage 4 to 6) in 24 well plates were washed twice with 1.0 ml of Krebs-Ringer solution (125 mM NaCl, 5 mM KCl, 1.0 mM CaCl2, 1.2 mMMgSO4, 25 mM HEPES, pH 7.4 and 6 mM glucose). Intact cells were incubated with ^125 I-Ang I (0.2-0.4 nM, final concentration) both in the presence and absence of enzyme inhibitors in 0.25 ml of Krebs buffer at 37° C. At selected time points, aliquots (0.05 ml) were withdrawn from the well, diluted in 0.15 ml 80% acetonitrile (ACN)/0.2% heptafluorobutyric acid (HFBA) stored at -80° C. prior to analysis by high performance liquid chromatography (HPLC). In addition, 0.20 ml of the medium, exposed to the cells for 60 minutes were incubated with ^125 I-Ang I for 60-120 minutes at 37° C. and analyzed by HPLC.
(§4) ^125 I-products were characterized by HPLC using a heptafluorobutyric acid (HFBA) solvent system. This system consisted of 0.13% HFBA (mobile phase A) and 80% ACN/0.13% HFBA (mobile phase B) and the analysis was performed on a Kratos 400 HPLC equipped with a Waters Nova-Pak C18 column (Waters, MA, 2.1×15 mm) and an Aquapore column (Waters, MA, 2.1×15 mm) and an Aquapore C8 guard column (Applied Biosystems, 3.2×1.5 mm). The gradient conditions consisted of 20-50% B Linear (30 min) and 50% B isocratic (10 min) at a flow rate of 0.3 ml/min at room temperature. HPLC fractions were collected every 0.5 min and counted in a gamma counter. Products were identified by comparison of their retention times to those of standard ^125 I-angiotensin peptides. To further assess the identity of each radioactive peak, either the incubation samples or ^125 I-products were rechromatographed using a trifluoracetic acid (TFA) solvent. This system consisted of 0.1% TFA, pH 4.5 (mobile phase A) and 60% ACN/0.1% TFA pH 4.5 (mobile phase B). A linear gradient of 15-45% B (30 min) and 45% B isocratic (10 min) at 0.3 ml/min at room temperature was performed on the HPLC system described above.
(§5) Statistics: Differences in the generation of ^125 I-peptides under various conditions were assessed by analyses of variance followed by Newman Keuls multiple comparison test. The criterion for statistical significance was set at p<0.05.

[2] = tested on: vascular smooth muscle cultures (VSMC) from spontaneously hypertensive rats; conditions: for inhibition of the formation of 125I-Ang-(1-7) from 125I-Ang I / effect on the levels of 125I-Ang-(1-7): 10 μM
Procedure: as §2, §3, §4, §5

[3] = supernatants of dog brain tissue punch homogenates (ACE activity assay); conditions: mongrel dogs, 37° C., up to 15 minutes
prolylendopeptidase = target: T1, prolylendopeptidase (Canis lupus familiaris, UniProt A0A8I3N6C8); assay: 125I-Ang-(1-7) production from 125I-Ang I in dog hypothalamus homogenates (HPLC); type: biochemical; conditions: DTT 1 mM
T1 construct: from tissue; host or cells: dog hypothalamus homogenate, 10,000 g supernatant
T1 sequence (A0A8I3N6C8 1-710): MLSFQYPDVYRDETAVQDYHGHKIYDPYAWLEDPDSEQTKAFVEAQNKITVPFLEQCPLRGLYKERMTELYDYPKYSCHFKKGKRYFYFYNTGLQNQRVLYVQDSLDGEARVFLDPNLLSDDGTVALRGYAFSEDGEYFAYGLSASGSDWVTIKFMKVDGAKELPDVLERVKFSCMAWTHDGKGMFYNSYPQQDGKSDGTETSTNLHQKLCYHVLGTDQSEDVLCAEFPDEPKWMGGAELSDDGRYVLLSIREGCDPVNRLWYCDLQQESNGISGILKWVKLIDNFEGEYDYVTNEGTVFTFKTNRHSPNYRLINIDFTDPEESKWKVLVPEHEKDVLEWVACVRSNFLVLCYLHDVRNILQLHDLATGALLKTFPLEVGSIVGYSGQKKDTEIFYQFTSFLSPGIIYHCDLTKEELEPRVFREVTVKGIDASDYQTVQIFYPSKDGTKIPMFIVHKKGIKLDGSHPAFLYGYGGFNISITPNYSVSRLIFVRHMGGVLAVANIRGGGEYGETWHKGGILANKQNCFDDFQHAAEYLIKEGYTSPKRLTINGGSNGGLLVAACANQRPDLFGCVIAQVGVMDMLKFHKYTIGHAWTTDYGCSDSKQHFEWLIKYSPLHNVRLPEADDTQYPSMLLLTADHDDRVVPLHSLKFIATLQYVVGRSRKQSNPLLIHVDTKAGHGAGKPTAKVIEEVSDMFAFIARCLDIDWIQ
Procedure: As a result of these discoveries, the enzyme(s) involved in the production of Ang-(1-7) in homogenates (20 mM TRIS HCl buffer, pH 7.5) of dog hypothalamus were evaluated.

[4] = tested on: spontaneously hypertensive rats (SHR); assay: Third ventricle push-pull perfusion in SHR, MAP and HR; type: in vivo, rat
Procedure: (§1) In order to assess the effectiveness of Z-Proprolinal, the specific inhibitor of prolyl endopeptidase, in controlling blood pressure the following study was conducted. […] Similar studies were performed in age-matched normotensive Wistar-Kyoto control rats (WKY) (obtained from Taconic Farms, New York).

[5] = tested on: normotensive Wistar-Kyoto control rats (WKY); assay: Third ventricle push-pull perfusion in WKY, MAP and HR; type: in vivo, rat
Procedure: as §1

[6] = mammals; cited from earlier work
NEP 24.11 = conditions: human; cited from earlier work
human urine = conditions: cited from earlier work
swine urine = conditions: cited from earlier work
vascular smooth muscle = conditions: cited from earlier work
[7] = cultured mouse spinal cord cells; conditions: cited from earlier work
[8] = preparations of synaptic membranes from the rat brain; conditions: cited from earlier work

C[C@H](NC(=O)[C@H](C)NC(CCc1ccccc1)C(=O)O)C(=O)N[C@@H](Cc1ccccc1)C(=O)Nc1ccc(C(=O)O)cc1 (stereo partly drawn) [cFP-AAF-pAB, Carboxyphenylpropyl-alanyl-alanyl-phenylalanyl-para-aminiobenzoate]
inhibition of the formation of 125I-Ang-(1-7) from 125I-Ang I [1]: 90%
inhibition of the formation of 125I-Ang-(1-7) from 125I-Ang I ([1]; listed as cPf-AAF-pAB): over 90%
inhibition of the formation of 125I-Ang-(1-7) from 125I-Ang I ([2]; SHR VSMC): 90%
inhibition of the formation of 125I-Ang-(1-7) from 125I-Ang I ([2]; SHR VSMC, listed as cPf-AAF-pAB, 10 µM): over 90%

His-Leu
not cleaved [3]: hydrolysis of the product His-Leu was less than 6%

O[C@@H](CS)[C@@H](O)CS [DTT]
increase in the rate of generation of Ang-(1-7) (prolylendopeptidase): about three fold

O=S(=O)(O)c1cc[c]([Hg][Cl])cc1 [PCMS, p-chloromercuriphenylsulfonate acid]
inhibition of 125I-Ang-(1-7) levels ([1]; 1 μM, data not shown): to a similar extent as that observed with cPF-AAF-pAB
inhibition of 125I-Ang-(1-7) levels ([2]; SHR VSMC, 1 μM, data not shown): to a similar extent as that observed with cPF-AAF-pAB

^125 I-Ang I: 125I-labelled Ang I used as substrate (DRVYIHPFHL; also: 125I label; UniProt P01019 25-34, looked up)
125I-Ang-(1-7) generation as share of the total 125I-Ang I metabolism [2]: 65-80%
main peptide product in the medium [2]: ^125 I-Ang-(1-7)

O=C[C@@H]1CCCN1C(=O)[C@@H]1CCCN1C(=O)OCc1ccccc1 [ZPP, N-benzyloxycarbonyl-prolylprolinal] (Cbz-Pro-Pro-aldehyde)
fall in MAP in response to depolarizing K+ after ZPP pretreatment ([4]; K+ alone -19±4 mmHg): did not change the magnitude of the fall in MAP
HR response to depolarizing K+ after ZPP pretreatment ([4]; K+ alone -32±7 beats/min): attenuated
decrease in mean arterial pressure ([4]; ZPP 1 μM perfusion of third ventricle, n=13, basal MAP 156±5 mmHg): -37±4 mmHg
heart rate (HR) with ZPP perfusion ([4]; ZPP 1 μM, from 384±10): 376±19 beats/min
effect on either MAP or HR ([5]; WKY (n=13), ZPP 1 μM): no effect
MAP with ZPP perfusion ([5]; WKY, ZPP 1 μM, from 99±6): 100±7 mmHg
HR with ZPP perfusion ([5]; WKY, ZPP 1 μM, from 379±18): 368±27 beats/min
reduction in MAP by K+ in the presence of ZPP ([5]; WKY, K+ alone -16±3 mmHg): -6±4 mmHg
reduction in HR by K+ in the presence of ZPP ([5]; WKY, K+ alone -37±7 beats/min): -13±8 beats/min
effect on the levels of 125I-Ang-(1-7) [1]: no effect
effect on the levels of 125I-Ang-(1-7) ([2]; SHR VSMC): no effect
blood-brain barrier (BBB) passage [6]: readily traverses the blood-brain barrier

Asp-Arg-Val-Tyr-Ile-His-Pro-Phe
cleaved bond (NEP 24.11): Tyr4-Ile5
fragment found (human urine): Angiotensin-(1-7)
fragment found (swine urine): Angiotensin-(1-7)
fragment found (vascular smooth muscle): Angiotensin-(1-7)
fragment found [7]: Angiotensin-(1-7)
fragment found [8]: Angiotensin-(1-7)

O=C(O)CNC(=O)C(CS)Cc1ccccc1 (stereo not drawn) [thiorphan]
effect on the levels of 125I-Ang-(1-7) [1]: no effect
effect on the levels of 125I-Ang-(1-7) ([2]; SHR VSMC): no effect
